In US8759519B2, “Mono-hydrochloric salts of an inhibitor of histone deacetylase” (Janssen Pharmaceutica NV, priority 2007, dated 2014):
Structures can show the parent of a compound that is named as a salt.

Assays:
Assay type in all cases: physicochemical
[1] = Adsorption/desorption of water (dynamic vapor sorption)
Experimental: The ADS/DES data were obtained using a SMS dynamic vapor sorption model DVS-1 and the weight change was recorded with tespect to the atmospheric humidity at 25° C. The weight of the samples was about 17 mg of Form I and 24 mg of Form II. The samples were dried for 60 min under dry nitrogen. The equilibrium was lower or equal to 0.01%/min. for minimal 15 min and maximal 60 min. The data interval was 0.05% or 2.0 min.
Relative Humidity (%) measurement points were:
The adsorption and desorption of water at 25° C. at different conditions of relative humidity was investigated on 17 mg Form I.
The weight change as a function of relative humidity was registered.
The adsorption and desorption of water at 25° C. at different conditions of relative humidity was investigated on about 24 mg Form II

[2] = Crystallographic stability after storage in open conditions (TGA, DSC, XRPD, IR); set-up: key to XRD / IR: ~Ref: identical with reference; Cryst.: crystalline; details: for IR / XRD: Table G
Experimental: The stability of the crystal structure of Form I was studied after storage of the compound in open conditions for a period of six weeks at room temperature (RT) under <5%, 56% and 75% relative humidity (RH), 50° C. and 40° C./75% RH.
The samples are analyzed with thermogravimetry (TGA), differential scanning calorimetry (DSC), X-ray powder diffraction (XRPD) and infrared spectroscopy (IR).
The stability of the crystal structure of Form II was studied after storage of the compound in open conditions for a period of six weeks at room temperature (RT) under <5%, 56% and 75% relative humidity (RH), 50° C. and 40° C./75% RH.
The samples were analyzed with thermogravimetry (TGA), differential scanning calorimetry (DSC), X-ray powder diffraction (XRPD) and infrared spectroscopy (IR).

[3] = Chemical stability after storage in open conditions (HPLC, visual inspection); details: for HPLC Sum of impurities / Appearance: hydrochloride
Experimental: Form I was stored in different open conditions for periods of 1, 4 and 8 weeks.
These conditions are 40° C./75% RH, 50° C., RT/<5% RH, RT/56% RH, RT/75% RH and 0.3 da ICH light.
The compounds were analyzed after storage by HPLC and by visual inspection.
Form II was stored in different open conditions for periods of 1, 4 and 8 weeks. These conditions were 40° C./75% RH, 50° C., RT/<5% RH, RT/56% RH, RT/75% RH and 0.3 da ICH light.

[4] = 0 days (reference), hydrochloride
[5] = extra endothermic signal, six weeks open, 40° C./75% RH
[6] = extra endothermic signal, six weeks open, 50° C.
[7] = extra endothermic signal, six weeks open, RT/56% RH
[8] = extra endothermic signal, six weeks open, RT/75% RH
[9] = extra endothermic signal, six weeks open, RT/<5% RH
[10] = six weeks open, 40° C./75% RH, hydrochloride
[11] = six weeks open, 50° C., hydrochloride
[12] = six weeks open, RT/<5% RH, hydrochloride

Cn1cc(CNCC2CCN(c3ncc(C(=O)NO)cn3)CC2)c2ccccc21 [Form II, N-hydroxy-2-[4-[[[(1-methyl-1H-indol-3-yl)methyl]amino]methyl]-1-piperidinyl]-5-pyrimidinecarboxamide hydrochloride]
drying during the desorption cycle ([1]; 25° C.): dries completely
hygroscopic behavior ([1]; 25° C., adsorption/desorption test, hydrochloride): hygroscopic
water adsorbed at high relative humidity ([1]; 25° C., high relative humidity, hydrochloride): up to 9.6%
crystallinity during the adsorption/desorption test ([1]; 25° C., hydrochloride): remains crystalline
weight loss during the initial drying step ([1]; dried under dry nitrogen): 1.67%
DSC Max (° C.) ([2]; 0 days (reference)): ±198 °C
TGA <170° C. ([2]; 0 days (reference)): 0.4%
App (appearance) [2, 4]: white
TGA <100° C. [2, 4]: 3.3%
IR ([2]; six weeks open, 40° C./75% RH): ≠Ref
XRD ([2]; six weeks open, 40° C./75% RH): ≠Ref
IR ([2]; six weeks open, 50° C.): ~Ref
XRD ([2]; six weeks open, 50° C.): ~Ref
IR ([2]; six weeks open, RT/56% RH): ≠Ref
XRD ([2]; six weeks open, RT/56% RH): ≠Ref
IR ([2]; six weeks open, RT/75% RH): ≠Ref
XRD ([2]; six weeks open, RT/75% RH): ≠Ref
IR ([2]; six weeks open, RT/<5% RH): ~Ref
XRD ([2]; six weeks open, RT/<5% RH): ~Ref
DSC Extra (° C.) ([2]; extra endothermic signal (solvent evaporation), 0 days (reference)): 71.5 °C
DSC Extra, heat of the signal ([2]; extra endothermic signal, 0 days (reference)): (78 J/g)
DSC Extra (° C.) [2, 5]: 83.9 °C
DSC Extra, heat of the signal [2, 5]: (151 J/g)
DSC Extra (° C.) [2, 6]: 74.6 °C
DSC Extra, heat of the signal [2, 6]: (66 J/g)
DSC Extra (° C.) [2, 7]: 87.1 °C
DSC Extra, heat of the signal [2, 7]: (144 J/g)
DSC Extra (° C.) [2, 8]: 85.2 °C
DSC Extra, heat of the signal [2, 8]: (153 J/g)
DSC Extra (° C.) [2, 9]: 75.1 °C
DSC Extra, heat of the signal [2, 9]: (68 J/g)
crystallographic stability (conclusion) ([2]; six weeks open storage under the different conditions, hydrochloride): crystallographically not stable
DSC Max (° C.) ([2]; six weeks open, 40° C./75% RH): ±198 °C
TGA <170° C. ([2]; six weeks open, 40° C./75% RH): 0.2%
App (appearance) [2, 10]: pink
TGA <100° C. [2, 10]: 6%
DSC Max (° C.) ([2]; six weeks open, 50° C.): ±198 °C
TGA <170° C. ([2]; six weeks open, 50° C.): 0.2%
App (appearance) [2, 11]: white
TGA <100° C. [2, 11]: 2.1%
DSC Max (° C.) ([2]; six weeks open, RT/56% RH): ±198 °C
TGA <170° C. ([2]; six weeks open, RT/56% RH): 0.3%
TGA <100° C. ([2]; six weeks open, RT/56% RH, hydrochloride): 5.2%
DSC Max (° C.) ([2]; six weeks open, RT/75% RH): ±198 °C
TGA <170° C. ([2]; six weeks open, RT/75% RH): 0.3%
TGA <100° C. ([2]; six weeks open, RT/75% RH, hydrochloride): 4.9%
DSC Max (° C.) ([2]; six weeks open, RT/<5% RH): ±198 °C
TGA <170° C. ([2]; six weeks open, RT/<5% RH): 0.4%
App (appearance) [2, 12]: white
TGA <100° C. [2, 12]: 1.9%
HPLC Sum of impurities ([3]; 0.3 da ICH light (1 week)): 7.42%
HPLC Sum of impurities ([3]; 40° C./75% RH, 1 week): 4.96%
Appearance ([3]; 40° C./75% RH, 4 weeks): pink
HPLC Sum of impurities ([3]; 40° C./75% RH, 4 weeks): 4.99%
Appearance ([3]; 40° C./75% RH, 8 weeks): pink
HPLC Sum of impurities ([3]; 40° C./75% RH, 8 weeks): 4.9%
Appearance ([3]; 50° C., 1 week): white
HPLC Sum of impurities ([3]; 50° C., 1 week): 4.96%
Appearance ([3]; 50° C., 4 weeks): white
HPLC Sum of impurities ([3]; 50° C., 4 weeks): 5%
HPLC Sum of impurities ([3]; 50° C., 8 weeks): 4.9%
HPLC Sum of impurities ([3]; RT/56% RH, 4 weeks): 5.05%
HPLC Sum of impurities ([3]; RT/56% RH, 8 weeks): 4.94%
HPLC Sum of impurities ([3]; RT/75% RH, 4 weeks): 5.03%
HPLC Sum of impurities ([3]; RT/75% RH, 8 weeks): 4.97%
Appearance ([3]; RT/<5% RH, 4 weeks): white
HPLC Sum of impurities ([3]; RT/<5% RH, 4 weeks): 5.1%
Appearance ([3]; RT/<5% RH, 8 weeks): white
HPLC Sum of impurities ([3]; RT/<5% RH, 8 weeks): 4.98%
Appearance ([3]; Reference (1 week)): white
HPLC Sum of impurities ([3]; Reference (1 week)): 5.04%
discoloration ([3]; after storage in 0.3 da ICH light): white to or orange-brown
discoloration ([3]; after storage in humid conditions RT/56% RH, RT/75% RH and 40° C./75% RH and elevated temperature 50° C.): white to pink
sensitivity towards light (sum of impurities) ([3]; storage in 0.3 da ICH light conditions): showed a sensitivity towards light
